Results reported in ChEMBL document CHEMBL1201862, “PubChem BioAssay data set” (2004).
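These data come from cells grown in 96-well plates and exposed to compound for 48 hours at five concentrations. At the GI50, growth is halved.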 Calls of active or inactive are those of the source. Cut-off read from the data, not from the text of the source: active = GI50 up to about 1.1 µM and inactive = higher.

Key:
Test in all cases: NCI tumour cell line growth inhibition, 48 h
NCI-H522 = test system: NCI-H522
OVCAR-5 = test system: OVCAR-5
LOX IMVI = test system: LOX IMVI
DMS-273 = test system: DMS-273
OVCAR-8 = test system: OVCAR-8
Malme-3M = test system: Malme-3M
OVCAR-3 = test system: OVCAR-3
M19-MEL = test system: M19-MEL
SNB-75 = test system: SNB-75
SNB-19 = test system: SNB-19
SK-MEL-2 = test system: SK-MEL-2
CCRF-CEM = test system: CCRF-CEM
UACC-62 = test system: UACC-62
SK-MEL-5 = test system: SK-MEL-5
NCI-H226 = test system: NCI-H226
DMS-114 = test system: DMS-114
SF-295 = test system: SF-295
NCI-H460 = test system: NCI-H460
LXFL 529 = test system: LXFL 529
XF498 = test system: XF498
RPMI-8226 = test system: RPMI-8226
HCT-15 = test system: HCT-15
TK-10 = test system: TK-10
RXF 393 = test system: RXF 393
K562 = test system: K562
SF-539 = test system: SF-539
COLO 205 = test system: COLO 205
SK-MEL-28 = test system: SK-MEL-28
SR = test system: SR
HCT-116 = test system: HCT-116
HL-60 = test system: HL-60
SF-268 = test system: SF-268
ACHN = test system: ACHN
HOP-62 = test system: HOP-62
NCI-H23 = test system: NCI-H23
A549 = test system: A549
SNB-78 = test system: SNB-78
KM-20L2 = test system: KM-20L2
UO-31 = test system: UO-31
SW-620 = test system: SW-620
SN12C = test system: SN12C
EKVX = test system: EKVX
HT-29 = test system: HT-29
786-0 = test system: 786-0
M14 = test system: M14
MOLT-4 = test system: MOLT-4
KM12 = test system: KM12
OVCAR-4 = test system: OVCAR-4
U-251 = test system: U-251
IGROV-1 = test system: IGROV-1

Compound: c1ccc(C2=NN3CN(N2)c2ccccc2OCCCOc2ccccc23)cc1
- GI50 (NCI-H522): 34.7 µM (inactive)
- GI50 (OVCAR-5): > 100 µM (inactive)
- GI50 (LOX IMVI): > 100 µM (inactive)
- GI50 (DMS-273): > 100 µM (inactive)
- GI50 (OVCAR-8): > 100 µM (inactive)
- GI50 (Malme-3M): > 100 µM (inactive)
- GI50 (OVCAR-3): > 100 µM (inactive)
- GI50 (M19-MEL): > 100 µM (inactive)
- GI50 (SNB-75): 88.5 µM (inactive)
- GI50 (SNB-19): > 100 µM (inactive)
- GI50 (SK-MEL-2): > 100 µM (inactive)
- GI50 (CCRF-CEM): > 100 µM (inactive)
- GI50 (UACC-62): > 100 µM (inactive)
- GI50 (SK-MEL-5): > 100 µM (inactive)
- GI50 (NCI-H226): > 100 µM (inactive)
- GI50 (DMS-114): > 100 µM (inactive)
- GI50 (SF-295): > 100 µM (inactive)
- GI50 (NCI-H460): > 100 µM (inactive)
- GI50 (LXFL 529): > 100 µM (inactive)
- GI50 (XF498): > 100 µM (inactive)
- GI50 (RPMI-8226): 19.1 µM (inactive)
- GI50 (HCT-15): > 100 µM
- GI50 (TK-10): > 100 µM (inactive)
- GI50 (RXF 393): > 100 µM (inactive)
- GI50 (K562): > 100 µM (inactive)
- GI50 (SF-539): > 100 µM (inactive)
- GI50 (COLO 205): > 100 µM (inactive)
- GI50 (SK-MEL-28): > 100 µM (inactive)
- GI50 (SR): 92.7 µM (inactive)
- GI50 (HCT-116): > 100 µM (inactive)
- GI50 (HL-60): 48.9 µM (inactive)
- GI50 (SF-268): > 100 µM (inactive)
- GI50 (ACHN): > 100 µM (inactive)
- GI50 (HOP-62): > 100 µM (inactive)
- GI50 (NCI-H23): > 100 µM (inactive)
- GI50 (A549): > 100 µM (inactive)
- GI50 (SNB-78): > 100 µM (inactive)
- GI50 (KM-20L2): > 100 µM (inactive)
- GI50 (UO-31): 77.4 µM (inactive)
- GI50 (SW-620): > 100 µM (inactive)
- GI50 (SN12C): > 100 µM (inactive)
- GI50 (EKVX): > 100 µM (inactive)
- GI50 (HT-29): > 100 µM (inactive)
- GI50 (786-0): > 100 µM (inactive)
- GI50 (M14): > 100 µM (inactive)
- GI50 (MOLT-4): 63.8 µM (inactive)
- GI50 (KM12): > 100 µM (inactive)
- GI50 (OVCAR-4): 77.6 µM (inactive)
- GI50 (U-251): > 100 µM (inactive)
- GI50 (IGROV-1): > 100 µM (inactive)
